Nine compounds from PubChem BioAssay (NCI) can be followed below.

By GI50 is commonly meant the concentration giving 50% growth inhibition. A word on the TGI: it is the concentration at which net growth stops.

Among the test systems are LOX IMVI melanoma; HOP-62 NSCLC; SF-295 CNS; SK-MEL-28 melanoma; HOP-92 NSCLC; NCI-H226 lung; K-562 leukemia; OVCAR-3 ovarian; HT29 colon; MCF7 breast.
Assay in all cases: DTP human tumour cell line panel, 48 h

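How tested: cells in 96-well plates exposed to compound for 48 hours at five concentrations. GI50: concentration for 50% inhibition of growth. At the TGI there is no net growth.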

In the case of `COc1ccc(-c2nn3c(-c4cc(F)c(Cl)cc4Cl)nnc3s2)cc1`, the GI50 is 26.4 µM in the test on LOX IMVI melanoma; 26.2 µM in the test with HOP-62 NSCLC; 16.2 µM in the test on SF-295 CNS; 25.8 µM with SK-MEL-28 melanoma; 24.2 µM with HOP-92 NSCLC; 47.9 µM with NCI-H226 lung. Besides, the GI50 is 5.13 µM in the test on K-562 leukemia, 20.4 µM with OVCAR-3 ovarian, 18.5 µM in the test with HT29 colon and 11.4 µM in the test with MCF7 breast. Moreover, the TGI is greater than 100 µM with LOX IMVI melanoma; greater than 100 µM in the test with HOP-62 NSCLC; 65.3 µM with SF-295 CNS; greater than 100 µM in the test with SK-MEL-28 melanoma; 77.9 µM in the test with HOP-92 NSCLC; greater than 100 µM with NCI-H226 lung. For the same compound, the total growth inhibition concentration (TGI) in the test on K-562 leukemia is 44.7 µM; in the test with OVCAR-3 ovarian it was 66.7 µM; in the test on HT29 colon, 44.3 µM; with MCF7 breast it was greater than 100 µM.
As to `CCc1nccc2c1nc(-c1nonc1N)n2CC`, the GI50 in the test with LOX IMVI melanoma was greater than 25 µM; in the test on HOP-62 NSCLC, greater than 25 µM; with SF-295 CNS, greater than 7.78 µM; in the test with SK-MEL-28 melanoma, greater than 25 µM; in the test on HOP-92 NSCLC, 1.39 µM; in the test with NCI-H226 lung, greater than 18 µM. The GI50 with K-562 leukemia, in the test on OVCAR-3 ovarian, in the test with HT29 colon and in the test on MCF7 breast was greater than 25 µM throughout. Moreover, the TGI in the test on LOX IMVI melanoma was greater than 25 µM; in the test on HOP-62 NSCLC it was greater than 25 µM; in the test on SF-295 CNS, greater than 25 µM; with SK-MEL-28 melanoma, greater than 25 µM; with HOP-92 NSCLC, 21.5 µM; in the test on NCI-H226 lung, greater than 25 µM. Moreover, the TGI with K-562 leukemia, in the test with OVCAR-3 ovarian, with HT29 colon and in the test on MCF7 breast was greater than 25 µM in each case.
On to `CCCCCCCCCCC(C(=O)O)C1(C(=O)O)CCC(=O)O1` (centres undefined), for which the TGI in the test on LOX IMVI melanoma, in the test on HOP-62 NSCLC, in the test on SF-295 CNS, with SK-MEL-28 melanoma, in the test on HOP-92 NSCLC and in the test with NCI-H226 lung was greater than 100 µM in each case. Further, the concentration for total growth inhibition (TGI) with K-562 leukemia, in the test with OVCAR-3 ovarian, in the test with HT29 colon and in the test on MCF7 breast was greater than 100 µM in each case.
As for `COc1ccc2c(c1)/C(=C\c1c(C)nc3sccn13)C(=O)N2`, the 50% growth inhibitory concentration (GI50) with LOX IMVI melanoma is less than 0.01 µM; in the test on SF-295 CNS, less than 0.0466 µM; in the test on SK-MEL-28 melanoma, 66.3 µM; with HOP-92 NSCLC, 0.83 µM; in the test with NCI-H226 lung, 6.55 µM; in the test on K-562 leukemia, 0.0956 µM. Besides, in the test on OVCAR-3 ovarian, the GI50 was less than 0.01 µM. The total growth inhibition concentration (TGI) in the test on LOX IMVI melanoma was greater than 100 µM; in the test on HOP-62 NSCLC it was greater than 100 µM; in the test on SK-MEL-28 melanoma, greater than 100 µM; in the test with HOP-92 NSCLC it was greater than 100 µM; in the test with NCI-H226 lung it was 74.4 µM; in the test on K-562 leukemia, greater than 100 µM. Moreover, the total growth inhibition concentration (TGI) in the test on HT29 colon and in the test on MCF7 breast was greater than 100 µM in each case.
On to `Oc1cccc2ccc(N/N=C/c3cc(CN4CCCCC4)c(O)c4ncccc34)nc12`, for which the GI50 is 0.0553 µM in the test on LOX IMVI melanoma; 0.0456 µM in the test with HOP-62 NSCLC; 0.0686 µM in the test on SF-295 CNS; 0.362 µM with SK-MEL-28 melanoma; 0.0165 µM with HOP-92 NSCLC; 0.41 µM in the test on NCI-H226 lung. Also, the GI50 is 0.0383 µM in the test with K-562 leukemia, 0.0858 µM in the test on OVCAR-3 ovarian, 0.324 µM in the test on HT29 colon and 0.034 µM with MCF7 breast. For the same compound, the TGI turned out to be 1.61 µM in the test on LOX IMVI melanoma; 8.04 µM with HOP-62 NSCLC; 3.07 µM in the test on SF-295 CNS; 15.9 µM in the test with SK-MEL-28 melanoma; 0.0857 µM in the test on HOP-92 NSCLC; 2.9 µM in the test with NCI-H226 lung. The TGI in the test on K-562 leukemia came out at 11.1 µM; in the test on OVCAR-3 ovarian it was 1.74 µM; in the test with HT29 colon, 1.46 µM; in the test with MCF7 breast, 1.28 µM.
Regarding `COc1ccc(/C=C(/C#N)C(N)=O)cc1OC`, the TGI in the test with LOX IMVI melanoma, in the test on HOP-62 NSCLC, with SF-295 CNS, in the test on SK-MEL-28 melanoma, in the test on HOP-92 NSCLC and in the test with NCI-H226 lung was greater than 100 µM in each case. In addition, the total growth inhibition concentration (TGI) with K-562 leukemia, in the test with OVCAR-3 ovarian, in the test on HT29 colon and in the test on MCF7 breast was greater than 100 µM each time.
Consider `COc1cc(C2CC(c3ccc4c(c3)OCO4)=NN2C=O)cc(OC)c1OC` (centres undefined), for which the GI50 with LOX IMVI melanoma was 1.27 µM; with HOP-62 NSCLC, 2.81 µM; in the test on SF-295 CNS, 0.735 µM; in the test on SK-MEL-28 melanoma it was 6.36 µM; with NCI-H226 lung it was 8.06 µM; with K-562 leukemia it was 0.621 µM. For the same compound, the figures for the GI50 in the test on OVCAR-3 ovarian, in the test with HT29 colon and in the test on MCF7 breast were 0.965 µM, 0.467 µM and 1.34 µM, respectively. In addition, the concentration for total growth inhibition (TGI) with LOX IMVI melanoma is greater than 100 µM; with HOP-62 NSCLC, greater than 100 µM; with SF-295 CNS it was 4.26 µM; in the test with SK-MEL-28 melanoma, greater than 100 µM; with HOP-92 NSCLC it was greater than 100 µM; with NCI-H226 lung, greater than 100 µM. Besides, the TGI is greater than 100 µM with K-562 leukemia, 3.25 µM with OVCAR-3 ovarian, greater than 100 µM in the test on HT29 colon and greater than 100 µM with MCF7 breast.
Turning to `CCOC(=O)c1cc(NS(=O)(=O)c2ccccc2)cc(C(=O)OCC)c1`, the GI50 in the test on LOX IMVI melanoma, in the test with HOP-62 NSCLC, in the test on SF-295 CNS, in the test on SK-MEL-28 melanoma, in the test with HOP-92 NSCLC and with NCI-H226 lung was greater than 100 µM each time. The GI50 in the test on K-562 leukemia, in the test on OVCAR-3 ovarian, in the test on HT29 colon and with MCF7 breast was greater than 100 µM in each case. Besides, the TGI in the test with LOX IMVI melanoma, with HOP-62 NSCLC, with SF-295 CNS, in the test on SK-MEL-28 melanoma, in the test with HOP-92 NSCLC and in the test on NCI-H226 lung was greater than 100 µM throughout. The concentration for total growth inhibition (TGI) in the test with K-562 leukemia, in the test with OVCAR-3 ovarian, with HT29 colon and with MCF7 breast was greater than 100 µM throughout.
Consider `O=C(NCCCCCCNC(=O)n1cc(F)c(=O)[nH]c1=O)NCCCOCCOCCOCCOCCOCCOCCOCCOCCOCCOCCOCCOCCOCCOCCOCCOCCOCCOCCOCCOCCOCCCNC(=O)C(O)C(O)C(O)C(O)CO` (centres undefined), for which the total growth inhibition concentration (TGI) with LOX IMVI melanoma, in the test on HOP-62 NSCLC, in the test on SF-295 CNS, with SK-MEL-28 melanoma, in the test on HOP-92 NSCLC and with NCI-H226 lung was greater than 100 µM each time. The TGI was greater than 100 µM in the test on K-562 leukemia, greater than 100 µM in the test with OVCAR-3 ovarian, greater than 100 µM in the test with HT29 colon and greater than 62 µM in the test on MCF7 breast.
